# Test results reported in patent US9657006B2, “Macrocyclic factor VIIa inhibitors” (BRISTOL-MYERS SQUIBB COMPANY, priority 2013, dated 2017).
# Counter-ions that a name gives are not always drawn.
# Target: T1, FVIIa (Homo sapiens, UniProt P08709)
# T1 construct: with about 1% of the total amount in the proteolytically active form factor VIIa
# Assay: FVIIa Ki (25° C.): FVIIa peptide substrate assay
# Assay type: biochemical
# Conditions: S2288 peptide substrate, full-length human TF
# Protocol: The effectiveness of compounds of the present invention as inhibitors of the coagulation Factors, VIIa, IXa, Xa, XIa, XIIa, plasma kallikrein or thrombin, tissue kallikrein and activated protein C, can be determined using a relevant purified serine protease, respectively, and an appropriate synthetic substrate. The rate of hydrolysis of the chromogenic or fluorogenic substrate by the relevant serine protease was measured both in the absence and presence of compounds of the present invention. […] A decrease in the rate of absorbance or fluorescence change in the presence of inhibitor is indicative of enzyme inhibition. Such methods are known to one skilled in the art. The results of this assay are expressed as the inhibitory constant, Ki.
# a. FVIIa Ki (25° C.): FVIIa Peptide Substrate Assay
# S2288 (range of concentrations) and FVIIa inhibitor were incubated for 15 minutes (min) at 25° C. Reactions were initiated by addition of a solution of full-length human TF (6 nM), FVIIa (0.75 nM), and PCPS (25 μM). FVIIa hydrolyses S2288, which was monitored for up to 60 min at 405 nm. Steady-state reaction velocity data (vs) was globally fit to Equation 1 for competitive inhibition. vs=Vmax[S]/([S]+Km(1+[I]/Ki)) (Eq. 1) where Vmax is maximum velocity, [S] is substrate concentration, Km is the Michaelis-Menten constant, [I] is the inhibitor concentration, and Ki is the inhibitor dissociation constant (GraFit, version 5, Erithacus Software Ltd, West Sussex, UK).
# T1 sequence (P08709 213-466 limits assumed): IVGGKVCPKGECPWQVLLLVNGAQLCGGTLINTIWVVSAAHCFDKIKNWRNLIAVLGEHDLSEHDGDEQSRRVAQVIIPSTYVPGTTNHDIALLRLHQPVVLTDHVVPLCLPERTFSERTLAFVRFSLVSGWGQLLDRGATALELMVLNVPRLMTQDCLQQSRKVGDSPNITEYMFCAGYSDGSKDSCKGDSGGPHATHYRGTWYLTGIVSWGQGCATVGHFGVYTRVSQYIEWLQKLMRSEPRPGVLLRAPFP
# T1 sequence (P08709 61-212 limits assumed): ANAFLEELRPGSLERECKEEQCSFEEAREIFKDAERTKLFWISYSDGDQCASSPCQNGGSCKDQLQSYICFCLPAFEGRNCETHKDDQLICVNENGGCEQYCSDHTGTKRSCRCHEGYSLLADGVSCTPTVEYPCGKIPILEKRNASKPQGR
# T1 sequence (P13726 33-295 partner): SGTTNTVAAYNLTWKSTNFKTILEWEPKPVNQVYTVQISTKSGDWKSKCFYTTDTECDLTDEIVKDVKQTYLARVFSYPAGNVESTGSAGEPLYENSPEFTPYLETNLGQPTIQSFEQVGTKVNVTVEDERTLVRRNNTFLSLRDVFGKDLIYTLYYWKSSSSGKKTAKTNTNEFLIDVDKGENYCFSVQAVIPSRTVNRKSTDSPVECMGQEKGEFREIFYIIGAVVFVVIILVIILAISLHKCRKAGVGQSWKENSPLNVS
row,Compound,Ki
1,"4-((R)-16-Difluoromethoxy-17-fluoro-3,12-dioxo-2,13-diaza-tricyclo[13.3.1.1^6,10]icosa-1(19),6,8,10(20),15,17-hexaen-11-ylamino)-benzamidine trifluoroacetic acid salt [Example 37]",11 nM
2,"COc1ccc2cc1[C@H](C)CN(C)C(=O)Nc1ccc(S(=O)(=O)C3CC3)c(c1)CN(C)C(=O)C2Nc1ccc2c(N)nccc2c1 (mixture of isomers) [Example 12, (S)-5-(1-Amino-isoquinolin-6-ylamino)-19-cyclopropanesulfonyl-9-methoxy-3,11,13-trimethyl-3,13,15-triaza-tricyclo[14.3.1.1^6,10]henicosa-1(20),6(21),7,9,16,18-hexaene-4,14-dione trifluoroacetic acid salt]",47 nM
3,"CN1Cc2cc(ccc2S(=O)(=O)C2CC2)NC(=O)OCc2cccc(c2)[C@@H](Nc2ccc3c(N)nccc3c2)C1=O (single isomer, unassigned) [Example 3]",560 nM
4,"CN1Cc2cc(ccc2S(=O)(=O)C2CC2)NC(=O)OCC(C)(C)c2cccc(c2)[C@@H](Nc2ccc3c(N)nccc3c2)C1=O (single isomer, unassigned) [Example 4]",1480 nM
5,"COc1ccc2cc1CCOC(=O)Nc1ccc(S(=O)(=O)C3CC3)c(c1)CN(C)C(=O)[C@@H]2Nc1ccc2c(N)nccc2c1 (single isomer, unassigned) [Example 6]",44 nM
6,"C[C@@H]1COC(=O)Nc2ccc(S(=O)(=O)C3CC3)c(c2)CN(C)C(=O)[C@H](Nc2ccc3c(N)nccc3c2)c2cccc1c2 (single isomer, unassigned) [Example 7]",115 nM
7,"COc1ccc2cc1CCC(=O)Nc1ccc(S(=O)(=O)C3CC3)c(c1)CN(C)C(=O)[C@@H]2Nc1ccc2c(N)ncc(F)c2c1 (single isomer, unassigned) [Example 11]",5 nM
8,"CN1Cc2cc(ccc2S(=O)(=O)C2CC2)NC(=O)N(Cc2ccccc2)CCc2cccc(c2)[C@@H](Nc2ccc3c(N)ncc(F)c3c2)C1=O (single isomer, unassigned) [Example 29]",80 nM
9,"C[C@H]1CC(=O)Nc2ccc(S(=O)(=O)C3CC3)c(c2)CN(C)C(=O)[C@H](Nc2ccc3c(N)ncc(F)c3c2)c2ccc(OCC(F)F)c1c2 (single isomer, unassigned) [Example 32, trifluoroacetic acid salt]",31 nM
10,"CN1CCc2cc(ccc2OCC(F)F)[C@@H](Nc2ccc3c(N)ncc(F)c3c2)C(=O)N(C)Cc2cc(ccc2S(=O)(=O)C(F)F)NC1=O (single isomer, unassigned) [Example 39, trifluoroacetic acid salt]",120 nM
11,"CN1Cc2cc(ccc2S(=O)(=O)C2CC2)NC(=O)NCCc2cccc(c2)[C@@H](Nc2ccc3c(N)ncc(F)c3c2)C1=O (single isomer, unassigned) [Example 41, trifluoroacetic acid salt]",17 nM
12,"CN1Cc2cc(ccc2S(=O)(=O)C2CC2)NC(=O)OCCc2cccc(c2)[C@@H](Nc2ccc3c(N)nccc3c2)C1=O [Example 1, (R)-5-(1-Amino-isoquinolin-6-ylamino)-19-cyclopropanesulfonyl-3-methyl-13-oxa-3,15-diaza-tricyclo[14.3.1.1^6,10]henicosa-1(19),6(21),7,9,16(20),17-hexaene-4,14-dione trifluoroacetic acid salt+Enantiomer]",188 nM
13,"CN1Cc2cc(ccc2S(=O)(=O)C2CC2)NC(=O)OCC2(CC2)c2cccc(c2)C(Nc2ccc3c(N)nccc3c2)C1=O (centres unmarked) [Example 5, trifluoroacetic acid salt]",950 nM
14,"COc1ccc2cc1COCC(=O)Nc1ccc(S(=O)(=O)C3CC3)c(c1)CN(C)C(=O)[C@@H]2Nc1ccc2c(N)nccc2c1 [Example 9, (R)-5-(1-Amino-isoquinolin-6-ylamino)-19-cyclopropanesulfonyl-9-methoxy-3-methyl-12-oxa-3,15-diaza-tricyclo[14.3.1.1^6,10]henicosa-1(19),6(21),7,9,16(20),17-hexaene-4,14-dione trifluoroacetic acid salt+Enantiomer]",23 nM
15,"CN1Cc2cc(ccc2S(=O)(=O)C2CC2)NC(=O)COc2cccc(c2)[C@@H](Nc2ccc3c(N)nccc3c2)C1=O [Example 10, (R)-14-(1-Amino-isoquinolin-6-ylamino)-9-cyclopropanesulfonyl-12-methyl-2-oxa-5,12-diaza-tricyclo[13.3.1.1^6,10]icosa-1(18),6(20),7,9,15 (19),16-hexaene-4,13-dione trifluoroacetic acid salt+Enantiomer]",714 nM
16,"CN1CCc2cc(ccc2OCc2ccccc2)C(Nc2ccc3c(N)ncc(F)c3c2)C(=O)N(C)Cc2cc(ccc2S(=O)(=O)C2CC2)NC1=O (centres unmarked) [Example 19, 5-(1-Amino-4-fluoro-isoquinolin-6-ylamino)-9-benzyloxy-19-cyclopropanesulfonyl-3,13-dimethyl-3,13,15-triaza-tricyclo[14.3.1.1^6,10]henicosa-1(19),6(21),7,9,16(20),17-hexaene-4,14-dione, trifluoroacetic acid salt]",115 nM

# Next, values leading:
row,Ki,Compound
1,5 nM,"CN1Cc2cc(ccc2S(=O)(=O)C2CC2)NC(=O)CCc2cccc(c2)[C@@H](Nc2ccc3c(N)nccc3c2)C1=O (single isomer, unassigned) [Example 8]"
2,5 nM,"CN1Cc2cc(ccc2S(=O)(=O)C2CC2)NC(=O)CCc2cc(ccc2F)[C@@H](Nc2ccc3c(N)ncc(F)c3c2)C1=O (single isomer, unassigned) [Example 14]"
3,6 nM,"COc1cc2cc(c1)[C@@H](Nc1ccc3c(N)ncc(F)c3c1)C(=O)N(C)Cc1cc(ccc1S(=O)(=O)C1CC1)NC(=O)CC2 (single isomer, unassigned) [Example 15]"
4,7 nM,"CN1Cc2cc(ccc2S(=O)(=O)C2CC2)NC(=O)CCc2cccc(c2)[C@@H](Nc2ccc3c(N)ncc(F)c3c2)C1=O (single isomer, unassigned) [Example 17]"
5,6 nM,"CN1Cc2cc(ccc2S(=O)(=O)C2CC2)NC(=O)CCc2cc(ccc2OCc2ccccc2)[C@@H](Nc2ccc3c(N)ncc(F)c3c2)C1=O (single isomer, unassigned) [Example 18]"
6,14 nM,"CN1CCc2cccc(c2)[C@@H](Nc2ccc3c(N)ncc(F)c3c2)C(=O)N(C)Cc2cc(ccc2S(=O)(=O)C2CC2)NC1=O (single isomer, unassigned) [Example 28]"
7,10 nM,"COc1c(F)cc2cc1CCC(=O)Nc1ccc(S(=O)(=O)C3CC3)c(c1)CN(C)C(=O)[C@@H]2Nc1ccc2c(N)ncc(F)c2c1 (single isomer, unassigned) [Example 30]"
8,5 nM,"COc1ccc2cc1[C@@H](C)CN(C)C(=O)Nc1ccc(S(=O)(=O)C3CC3)c(c1)CN(C)C(=O)[C@@H]2Nc1ccc2c(N)ncc(F)c2c1 (single isomer, unassigned) [Example 31]"
9,5 nM,"COc1ccc2cc1CCC(=O)Nc1ccc(S(=O)(=O)C(F)(F)F)c(c1)CN(C)C(=O)[C@@H]2Nc1ccc2c(N)nccc2c1 (single isomer, unassigned) [Example 34, trifluoroacetic acid salt]"
10,6 nM,"CN1CCc2cccc(c2)[C@@H](Nc2ccc(C(=N)N)cc2)C(=O)N(C)Cc2cc(cc(F)c2OC(F)F)NC1=O (single isomer, unassigned) [Example 35, trifluoroacetic acid salt]"
11,5 nM,"C[C@@H]1CC(=O)Nc2ccc(S(=O)(=O)C3CC3)c(c2)CN(C)C(=O)[C@H](Nc2ccc3c(N)ncc(F)c3c2)c2ccc(OCC(F)F)c1c2 (single isomer, unassigned) [Example 38, trifluoroacetic acid salt]"
12,5 nM,"CN1Cc2cc(cc(F)c2OCC(F)F)NC(=O)CCc2cc(ccc2OCC(F)F)[C@@H](Nc2ccc(C(=N)N)cc2)C1=O (single isomer, unassigned) [Example 40, trifluoroacetic acid salt]"
13,5 nM,"CN1Cc2cc(cc(F)c2OC(CF)CF)NC(=O)CCc2cc(ccc2OCC(F)F)[C@@H](Nc2ccc(C(=N)N)cc2)C1=O (single isomer, unassigned) [Example 42, trifluoroacetic acid salt]"
14,5 nM,"C[C@@H]1CC(=O)Nc2ccc(OC(F)F)c(c2)CN(C)C(=O)[C@H](Nc2ccc(C(=N)N)cc2)c2ccc(OCC(F)F)c1c2 (single isomer, unassigned) [Example 43, trifluoroacetic acid salt]"
15,5 nM,"CN1Cc2cc(ccc2S(=O)(=O)C2CC2)NC(=O)CCc2cc(ccc2OCC(F)F)[C@@H](Nc2ccc3c(N)ncc(F)c3c2)C1=O [Example 21, (R)-11-(1-Amino-4-fluoro-isoquinolin-6-ylamino)-16-cyclopropane sulfonyl-7-(2,2-difluoro-ethoxy)-13-methyl-2,13-diaza-tricyclo[13.3.1.1^6,10]icosa-1(19),6,8,10(20),15,17-hexaene-3,12-dione trifluroracetic acid salt]"
16,5 nM,"CN1Cc2cc(ccc2S(=O)(=O)C2CC2)NC(=O)CCc2cc(ccc2OCC2CC2)[C@@H](Nc2ccc3c(N)ncc(F)c3c2)C1=O [Example 22, (R)-11-(1-Amino-4-fluoro-isoquinolin-6-ylamino)-16-cyclopropane sulfonyl-7-cyclopropylmethoxy-13-methyl-2,13-diaza-tricyclo[13.3.1.1^6,10]icosa-1(19),6,8,10(20),15,17-hexaene-3,12-dione trifluroracetic acid salt]"
